Counter-ions that a name gives are not always drawn.
Target: factor Xa (Homo sapiens, UniProt P00742)
Experiment: In vitro Factor Xa assay (Test 1a), chromogenic substrate S-2765
Format: biochemical
Set-up: purchased Enzyme Research Laboratories, Inc; South Bend, Ind
Conditions: Factor Xa inhibitory activity; Ki from IC50 corrected for substrate competition; 25° C., pH 7.8; read-out: Ki (FXa)
Experimental: Purified enzymes are used in chromogenic assays. To determine the inhibition constant, the IC50 value is corrected for competition with substrate using the formula: […] where Km is the Michaelis-Menten-constant (Y.-C. Chen and W. H. Prusoff, Biochem. Pharmacol. 22: […] (1973), which is incorporated herein by reference). TBS-PEG buffer (50 mM Tris-Cl, pH 7.8, 200 mM NaCl, 0.05% (w/v) PEG-8000, 0.02% (w/v) NaN3) is used for this assay. The IC50 is determined by combining in appropriate wells of a Costar half-area microtiter plate 25 μl human factor Xa (Enzyme Research Laboratories, Inc.; South Bend, Ind.) in TBS-PEG; 40 μl 10% (v/v) DMSO in TBS-PEG (uninhibited control) or various concentrations of the compound to be tested diluted in 10% (v/v) DMSO in TBS-PEG; and substrate S-2765 (N-benzyloxycarbonyl-[…]-nitroanilide; Kabi Pharmacia, Inc.; Franklin Ohio) in TBS-PEG. […] The initial velocity of chromogenic substrate hydrolysis is measured by the change in absorbance at 405 nm using a Bio-tek Instruments kinetic plate reader ([…] 25° C. during the linear portion of the time course (usually 1.5 min after addition of substrate).

factor Xa, sequence (P00742 235-488 limits assumed): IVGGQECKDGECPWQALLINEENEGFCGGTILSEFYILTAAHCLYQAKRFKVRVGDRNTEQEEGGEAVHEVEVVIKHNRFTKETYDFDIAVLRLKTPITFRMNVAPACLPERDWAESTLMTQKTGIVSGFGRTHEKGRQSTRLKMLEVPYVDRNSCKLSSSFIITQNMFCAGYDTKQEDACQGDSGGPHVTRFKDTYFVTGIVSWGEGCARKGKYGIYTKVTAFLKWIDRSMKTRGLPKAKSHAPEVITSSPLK
factor Xa, sequence (P00742 41-179 partner limits assumed): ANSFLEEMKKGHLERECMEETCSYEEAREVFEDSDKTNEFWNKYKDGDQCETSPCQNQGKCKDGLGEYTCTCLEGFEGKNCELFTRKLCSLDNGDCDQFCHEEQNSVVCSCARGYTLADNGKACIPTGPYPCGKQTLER

Ki [nM] | Compound
2290 | C=CCNC(=O)C(Cc1ccc(C(=N)N)cc1)C(=O)N[C@@H](Cc1ccc(N)cc1)C(=O)N[C@@H](CCCNC(=N)N)C(N)=O (stereo partly drawn) [Example 17, N-Allyl-N′-[2-(4-amino-phenyl)-1-(S)-(1-(S)-carbamoyl-4-guanidino-butylcarbamoyl)-ethyl]-2-(4-carbamimidoyl-benzyl)-malonamide trifluoroacetic acid salt]
47 | CCCC[C@H](NC(=O)C(Cc1ccc(C(=N)N)cc1)C(=O)NC)C(=O)N[C@@H](CCCNC(=N)N)C(N)=O (stereo partly drawn) [Example 28, 2-(4-Carbamimidoyl-benzyl)-N-[1-(S)-(1-(S)-carbamoyl-4-guanidino-butylcarbamoyl)-pentyl]-N′-methyl-malonamide trifluoroacetic acid salt]
153 | CCCC[C@H](NC(=O)C(Cc1ccc(C(=N)N)cc1)C(=O)Nc1ccccc1)C(=O)N[C@@H](CCCNC(=N)N)C(N)=O (stereo partly drawn) [Example 30, 2-(4-Carbamimidoyl-benzyl)-N-[1-(S)-(1-(S)-carbamoyl-4-guanidino-butylcarbamoyl)-pentyl]-N′-phenyl-malonamide trifluoroactic acid salt]
10.7 | CN(C)C(=O)C(Cc1ccc(C(=N)N)cc1)C(=O)N[C@@H](CCc1ccccc1)C(=O)N[C@@H](CCCNC(=N)N)C(N)=O (stereo partly drawn) [Example 40, 2-(4-Carbamimidoyl-benzyl)-N-[1-(S)-(1-(S)-carbamoyl-4-guanidino-butylcarbamoyl)-3-phenyl-propyl]-N′,N′-dimethyl-malonamide trifluoroacetic acid salt]
26500 | C=CCNC(=O)C(Cc1ccc(C(=N)N)cc1)C(=O)N[C@@H](CCCN)C(=O)N[C@@H](CCCNC(=N)N)C(N)=O (stereo partly drawn) [Example 45, N-Allyl-N′-[4-amino-1-(S)-(1-(S)-carbamoyl-4-guanidino-butylcarbamoyl)-butyl]-2-(4-carbamimidoyl-benzyl)-malonamide trifluoroacetic acid salt]
3010 | N=C(N)NCCC[C@H](NC(=O)[C@H](CO)NC(=O)C(Cc1ccc(C(=N)N)cc1)C(=O)Nc1ccccc1)C(N)=O (stereo partly drawn) [Example 54, 2-(4-Carbamimidoyl-benzyl)-N-[1-(S)-(1-(S)-carbamoyl-4-guanidino-butylcarbamoyl)-2-hydroxy-ethyl]-N′-phenyl-malonamide trifluoroacetic acid salt]
2.1 | CN(C)C(=O)C(Cc1ccc(C(=N)N)cc1)C(=O)N[C@H](C(=O)N[C@@H](CCCNC(=N)N)C(N)=O)c1ccccc1 (stereo partly drawn) [Example 56, 2-(4-Carbamimidoyl-benzyl)-N-[(S)-(1-(S)-carbamoyl-4-guanidino-butylcarbamoyl)-phenyl-methyl]-N′,N′-dimethyl-malonamide trifluoroacetic acid salt]
957 | C=CCNC(=O)C(Cc1ccc(C(=N)N)cc1)C(=O)N[C@@H](COCc1ccccc1)C(=O)N[C@@H](CCCNC(=N)N)C(N)=O (stereo partly drawn) [Example 61, N-Allyl-N′-[2-benzyloxy-1-(S)-(1-(S)-carbamoyl-4-guanidino-butylcarbamoyl)-ethyl]-2-(4-carbamimidoyl-benzyl)-malonamide trifluoroacetic acid salt]
285 | CN(C)C(=O)C(Cc1ccc(C(=N)N)cc1)C(=O)N[C@@H](CCC(=O)O)C(=O)N[C@@H](CCCNC(=N)N)C(=O)N[C@@H](CC1CCCCC1)C(N)=O (stereo partly drawn) [Example 69, 4-(S)-[3-(4-Carbamimidoyl-phenyl)-2-dimethylcarbamoyl-propionylamino]-4-[1-(S)-(1-(S)-carbamoyl-2-cyclohexyl-ethylcarbamoyl)-4-guanidino-butylcarbamoyl]-butyric acid trifluoroacetic acid salt]
4300 | CCCC[C@@H](NC(=O)C(Cc1ccc(C(=N)N)cc1)C(=O)N(C)C)C(=O)N[C@@H](CCCNC(=N)N)C(=O)O (stereo partly drawn) [Example 72, 2-(S)-{2-(R)-[3-(4-Carbamimidoyl-phenyl)-2-dimethylcarbamoyl-propionylamino]-hexanoylamino}-5-guanidino-pentanoic acid trifluoroacetic acid salt]

The next lines start with the molecule.

Compound | Ki [nM]
CN(C)C(=O)C(Cc1ccc(C(=N)NO)cc1)C(=O)N[C@H](C(=O)N[C@@H](CCCNC(=N)N)C(N)=O)C1CCCCC1 (single isomer, unassigned; less polar) [Example 3] | 156
C=CCOC(=O)[C@H](CCCNC(=N)N)NC(=O)[C@@H](NC(=O)C(Cc1ccc(C(=N)N)cc1)C(=O)N(C)Cc1ccccc1)C1CCCCC1 (single isomer, unassigned; less polar) [Example 6] | 1
CC(C)C[C@H](NC(=O)[C@H](CCCNC(=N)N)NC(=O)[C@@H](NC(=O)C(Cc1ccc(N)cc1)C(=O)N(C(C)C)C(C)C)C1CCCCC1)C(=O)N1CCC[C@H]1C(N)=O (single isomer, unassigned; less polar) [Example 97] | 40
CCOC(=O)[C@H](CCCNC(=N)N)NC(=O)[C@@H](NC(=O)C(Cc1ccc(C(=N)N)cc1)C(=O)NCc1ccccc1)C1CCCCC1 (single isomer, unassigned; less polar) [Example 136] | 10
N=C(N)NCCC[C@H](NC(=O)[C@@H](NC(=O)C(Cc1ccc(C(=N)N)cc1)C(=O)NCc1ccccc1)C1CCCCC1)C(N)=O (single isomer, unassigned; more polar) [Example 8] | 35.1
CC(C)C[C@H](NC(=O)[C@H](Cc1ccc[n+](C)c1)NC(=O)[C@@H](NC(=O)C(Cc1ccc(C(=N)N)cc1)C(=O)N(C(C)C)C(C)C)C1CCCCC1)C(=O)N1CCC[C@H]1C(N)=O (single isomer, unassigned; more polar) [Example 94] | 1700
CN(C)C(=O)C(Cc1ccc(C(=N)N)cc1)C(=O)N[C@H](C(=O)N(CC(N)=O)Cc1ccncc1)C1CCCCC1 (single isomer, unassigned; more polar) [Example 104] | 6500
N=C(N)NCCC[C@H](NC(=O)[C@@H](NC(=O)C(Cc1ccc(C(=N)NO)cc1)C(=O)NCc1ccccc1)C1CCCCC1)C(N)=O (single isomer, unassigned; more polar) [Example 129] | 360
CN(C)C(=O)C(Cc1ccc(C(=N)N)cc1)C(=O)N1Cc2ccccc2C[C@H]1C(=O)N[C@@H](CCCNC(=N)N)C(N)=O (stereo partly drawn) [Example 10, 2-[3-(4-Carbamimidoyl-phenyl)-2-dimethylcarbamoyl-propionyl]-1,2,3,4-tetrahydro-isoquinoline-3-(S)-carboxylic acid (1-(S)-carbamoyl-4-guanidino-butyl)-amide trifluoroacetic acid salt] | 604
N=C(N)NCCC[C@H](NC(=O)[C@@H](NC(=O)C(Cc1ccc(C(=N)NO)cc1)C(=O)NCc1ccccc1)C1CCCCC1)C(N)=O (stereo partly drawn) [Example 14, N-Benzyl-N′-[(S)-(1-(S)-carbamoyl-4-guanidino-butylcarbamoyl)-cyclohexyl-methyl]-2-[4-(N-hydroxycarbamimidoyl)-benzyl]-malonamide trifluoroacetic acid salt] | 21.8
CCC(C)[C@@H](C(=O)N[C@@H](CCCNC(=N)N)C(N)=O)N(C)C(=O)C(Cc1ccc(C(=N)N)cc1)C(=O)Nc1ccccc1 (stereo partly drawn) [Example 21, 2-(4-Carbamimidoyl-benzyl)-N-[1-(S)-(1-(S)-carbamoyl-4-guanidino-butylcarbamoyl)-2-methyl-butyl]-N-methyl-N′-phenyl-malonamide trifluoroacetic acid salt] | 8370
N=C(N)NCCC[C@H](NC(=O)[C@H](Cc1ccc2ccccc2c1)NC(=O)C(Cc1ccc(C(=N)N)cc1)C(=O)Nc1ccccc1)C(N)=O (stereo partly drawn) [Example 38, 2-(4-Carbamimidoyl-benzyl)-N-[1-(S)-(1-(S)-carbamoyl-4-guanidino-butylcarbamoyl)-2-naphthalen-2-yl-ethyl]-N′-phenyl-malonamide trifluoroacetic acid] | 1100
N=C(N)NCCC[C@H](NC(=O)[C@@H](NC(=O)C(Cc1ccc(C(=N)N)cc1)C(=O)Nc1ccccc1)c1ccccc1)C(N)=O (stereo partly drawn) [Example 58, 2-(4-Carbamimidoyl-benzyl)-N-[(S)-(1-(S)-carbamoyl-4-guanidino-butylcarbamoyl)-phenyl-methyl]-N′-phenyl-malonamide trifluoroacetic acid salt] | 57.5
N=C(N)NCCC[C@H](NC(=O)[C@@H](NC(=O)C(Cc1ccc(C(=N)N)cc1)C(=O)NCc1ccccc1)C1CCCCC1)C(=O)O (stereo partly drawn) [Example 82, 2-(S)-{2-(S)-[2-Benzylcarbamoyl-3-(4-carbamimidoyl-phenyl)-propionylamino]-2-cyclohexyl-acetylamino}-5-guanidino-pentanoic acid trifluoroacetic acid salt] | 39.3
C=CCNC(=O)C(Cc1ccc(C(=N)N)cc1)C(=O)N[C@@H](CCC(=O)O)C(=O)N[C@@H](CCCNC(=N)N)C(=O)N[C@@H](CC1CCCCC1)C(N)=O (stereo partly drawn) [Example 89, 4-(S)-[2-Allylcarbamoyl-3-(4-carbamimidoyl-phenyl)-propionylamino]-4-[1-(S)-(1-(S)-carbamoyl-2-cyclohexyl-ethylcarbamoyl)-4-guanidino-butylcarbamoyl]-butyric acid trifluoroacetic acid salt] | 6480
